Experimental data published in ChEMBL document CHEMBL1123731, “Synthesis and antiarrhythmic properties of novel 3-selena-7-azabicyclo[3.3.1]nonanes and derivatives. Single-crystal X-ray diffraction analysis of 7-benzyl-3-selena-7-azabicyclo[3.3.1]nonan-9-one and 7-benzyl-3-selena-7-azabicyclo[3.3.1]nonane hydroperchlorate” (1987).
Values joined by “and” are separate entries in the source; they are usually repeats but may differ in a detail not shown here. Equal entries are not always repeated. Active and inactive are the calls of the source. The rule behind the calls is not given here.

Tests used:
Canis familiaris [1] = assay: Tested for Norman sinus rhythm in dogs at a dose of 3 mg/kg Expt-2; type: functional, Canis lupus familiaris
Canis familiaris [2] = assay: Tested for Norman sinus rhythm in dogs at a dose of 6 mg/kg Expt-1; type: functional, Canis lupus familiaris
Canis familiaris [3] = assay: Tested for mean blood pressure without ventricular tachycardia in dogs at a dose of 6 mg/kg Expt-1; type: functional, Canis lupus familiaris
Canis familiaris [4] = assay: Tested for Norman sinus rhythm in dogs at a dose of 6 mg/kg Expt-2; type: functional, Canis lupus familiaris
Canis familiaris [5] = assay: Tested for mean blood pressure without ventricular tachycardia in dogs at a dose of 3 mg/kg Expt-2; type: functional, Canis lupus familiaris
Canis familiaris [6] = assay: Tested for mean blood pressure with ventricular tachycardia in dogs at a dose of 6 mg/kg Expt-2; type: functional, Canis lupus familiaris
Canis familiaris [7] = assay: Tested for mean blood pressure without ventricular tachycardia in dogs at a dose of 3 mg/kg Expt-1; type: functional, Canis lupus familiaris
Canis familiaris [8] = species on record: Canis familiaris; assay: Relative effect on normal sinus rate in dogs;Slight decrease; type: functional, organism-based; details: Canis lupus familiaris
Canis familiaris [9] = species on record: Canis familiaris; assay: Relative effect on mean blood pressure in dogs; Moderate change in mean BP; type: functional, organism-based; details: Canis lupus familiaris
Canis familiaris [10] = species on record: Canis familiaris; assay: Relative effect on exacerbation of ventricular tachycardia in dogs; exacerbation of VT; type: functional, organism-based; details: Canis lupus familiaris; Cardiac ventricle
Canis familiaris [11] = species on record: Canis familiaris; assay: Relative effect on normal sinus rate in dogs;Slight increase; type: functional, organism-based; details: Canis lupus familiaris
Canis familiaris [12] = assay: Tested for Sustained ventricular tachycardia in dogs at a dose of 3 mg/kg Expt-2; type: functional, Canis lupus familiaris, Cardiac ventricle
Canis familiaris [13] = assay: Tested for Norman sinus rhythm in dogs at a dose of 3 mg/kg Expt-1; type: functional, Canis lupus familiaris
Canis familiaris [14] = assay: Tested for mean blood pressure without ventricular tachycardia in dogs at a dose of 6 mg/kg Expt-2; type: functional, Canis lupus familiaris
Canis familiaris [15] = assay: Tested for mean blood pressure with ventricular tachycardia in dogs at a dose of 3 mg/kg Expt-2; type: functional, Canis lupus familiaris
Canis familiaris [16] = assay: Tested for Sustained ventricular tachycardia in dogs at a dose of 6 mg/kg Expt-2; type: functional, Canis lupus familiaris, Cardiac ventricle
Canis familiaris [17] = species on record: Canis familiaris; assay: Relative effect on mean blood pressure in dogs;NC=no change in mean BP; type: functional, organism-based; details: Canis lupus familiaris
Canis familiaris [18] = species on record: Canis familiaris; assay: Relative effect on abolition of ventricular tachycardia in dogs; type: functional, organism-based; details: Canis lupus familiaris; Cardiac ventricle
Canis familiaris [19] = species on record: Canis familiaris; assay: Relative effect on slowing of ventricular tachycardia in dogs; slowing of VT; type: functional, organism-based; details: Canis lupus familiaris; Cardiac ventricle
Canis familiaris [20] = species on record: Canis familiaris; assay: Relative effect on normal sinus rate in dogs; NC=no change; type: functional, organism-based; details: Canis lupus familiaris
Canis familiaris [21] = species on record: Canis familiaris; assay: Relative effect on abolition of ventricular tachycardia in dogs; no abolition of VT; type: functional, organism-based; details: Canis lupus familiaris; Cardiac ventricle
Canis familiaris [22] = assay: Tested for Sustained ventricular tachycardia in dogs at a dose of 6 mg/kg Expt-1; type: functional, Canis lupus familiaris, Cardiac ventricle
Canis familiaris [23] = assay: Tested for mean blood pressure with ventricular tachycardia in dogs at a dose of 6 mg/kg Expt-1; type: functional, Canis lupus familiaris
Canis familiaris [24] = assay: Tested for Sustained ventricular tachycardia in dogs at a dose of 3 mg/kg Expt-1; type: functional, Canis lupus familiaris, Cardiac ventricle
Canis familiaris [25] = species on record: Canis familiaris; assay: Relative effect on mean blood pressure in dogs; NC=no change; type: functional, organism-based; details: Canis lupus familiaris
Canis familiaris [26] = assay: Tested for mean blood pressure without ventricular tachycardia in dogs at a dose of 6 mg/kg expt-1; type: functional, Canis lupus familiaris
Canis familiaris [27] = assay: Tested for mean blood pressure without ventricular tachycardia in dogs at a dose of 6 mg/kg expt-2; type: functional, Canis lupus familiaris
Canis familiaris [28] = assay: Tested for mean blood pressure without ventricular tachycardia in dogs at a dose of 3 mg/kg expt-1; type: functional, Canis lupus familiaris
Canis familiaris [29] = assay: Tested for mean blood pressure with ventricular tachycardia in dogs at a dose of 6 mg/kg expt-2; type: functional, Canis lupus familiaris
Canis familiaris [30] = species on record: Canis familiaris; assay: Relative effect on exacerbation of ventricular tachycardia in dogs; Exacerbation of VT present; type: functional, organism-based; details: Canis lupus familiaris; Cardiac ventricle
Canis familiaris [31] = assay: Tested for mean blood pressure with ventricular tachycardia in dogs at a dose of 3 mg/kg expt-1; type: functional, Canis lupus familiaris
Canis familiaris [32] = assay: Tested for Norman sinus rhythm in dogs at a dose of 3 mg/kg expt-2; type: functional, Canis lupus familiaris
Canis familiaris [33] = assay: Tested for Norman sinus rhythm in dogs at a dose of 3 mg/kg expt-1; type: functional, Canis lupus familiaris
Canis familiaris [34] = species on record: Canis familiaris; assay: Relative effect on normal sinus rate in dogs;NC =no change in normal sinus rate.; type: functional, organism-based; details: Canis lupus familiaris
Canis familiaris [35] = assay: Tested for mean blood pressure with ventricular tachycardia in dogs at a dose of 6 mg/kg expt-1; type: functional, Canis lupus familiaris
Canis familiaris [36] = assay: Tested for Norman sinus rhythm in dogs at a dose of 6 mg/kg expt-2; type: functional, Canis lupus familiaris
Canis familiaris [37] = species on record: Canis familiaris; assay: Relative effect on slowing of ventricular tachycardia in dogs;slowing of VT present; type: functional, organism-based; details: Canis lupus familiaris; Cardiac ventricle
Canis familiaris [38] = assay: Tested for mean blood pressure with ventricular tachycardia in dogs at a dose of 3 mg/kg expt-2; type: functional, Canis lupus familiaris
Canis familiaris [39] = assay: Tested for mean blood pressure without ventricular tachycardia in dogs at a dose of 3 mg/kg expt-2; type: functional, Canis lupus familiaris
Canis familiaris [40] = assay: Tested for Norman sinus rhythm in dogs at a dose of 6 mg/kg expt-1; type: functional, Canis lupus familiaris
Canis familiaris [41] = species on record: Canis familiaris; assay: Relative effect on mean blood pressure in dogs;NC = no change in mean BP; type: functional, organism-based; details: Canis lupus familiaris
Canis familiaris [42] = assay: Tested for mean blood pressure without ventricular tachycardia in dogs at a dose of 3 mg/kg expt-3; type: functional, Canis lupus familiaris
Canis familiaris [43] = assay: Tested for Norman sinus rhythm in dogs at a dose of 3 mg/kg Expt-3; type: functional, Canis lupus familiaris
Canis familiaris [44] = assay: Tested for mean blood pressure without ventricular tachycardia in dogs at a dose of 6 mg/kg expt-3; type: functional, Canis lupus familiaris
Canis familiaris [45] = assay: Tested for Norman sinus rhythm in dogs at a dose of 6 mg/kg; type: functional, Canis lupus familiaris; parameters: unit not given beside the values
Canis familiaris [46] = species on record: Canis familiaris; assay: Relative effect on exacerbation of ventricular tachycardia in dogs; no exacerbation of VT; type: functional, organism-based; details: Canis lupus familiaris; Cardiac ventricle
Canis familiaris [47] = species on record: Canis familiaris; assay: Relative effect on mean blood pressure in dogs; moderate increase by 16% in mean BP; type: functional, organism-based; details: Canis lupus familiaris
Canis familiaris [48] = species on record: Canis familiaris; assay: Relative effect on abolition of ventricular tachycardia in dogs; abolition of VT; type: functional, organism-based; details: Canis lupus familiaris; Cardiac ventricle
Canis familiaris [49] = species on record: Canis familiaris; assay: Relative effect on normal sinus rate in dogs;NC=no change; type: functional, organism-based; details: Canis lupus familiaris
Canis familiaris [50] = assay: Tested for Norman sinus rhythm in dogs at a dose of 3 mg/kg; type: functional, Canis lupus familiaris
Canis familiaris [51] = species on record: Canis familiaris; assay: Relative effect on exacerbation of ventricular tachycardia in dogs; No exacerbation of VT; type: functional, organism-based; details: Canis lupus familiaris; Cardiac ventricle
Canis familiaris [52] = assay: Relative effect on mean blood pressure in dogs; Slight 8% increase im mean BP; type: functional, organism-based; details: Canis lupus familiaris
Canis familiaris [53] = assay: Tested for mean blood pressure without ventricular tachycardia in dogs at a dose of 3 mg/kg; type: functional, Canis lupus familiaris
Canis familiaris [54] = species on record: Canis familiaris; assay: Relative effect on abolition of ventricular tachycardia in dogs;abolition of VT; type: functional, organism-based; details: Canis lupus familiaris; Cardiac ventricle
Canis familiaris [55] = assay: Tested for mean blood pressure without ventricular tachycardia in dogs at a dose of 6 mg/kg; type: functional, Canis lupus familiaris

Structure (SMILES)	NSR (Canis familiaris [1])	NSR (Canis familiaris [2])	MBP (Canis familiaris [3])	NSR (Canis familiaris [4])	MBP (Canis familiaris [5])	MBP (Canis familiaris [6])	MBP (Canis familiaris [7])	Effect (Canis familiaris [10])	Activity (Canis familiaris [12]) [beats min-1]	NSR (Canis familiaris [13])	MBP (Canis familiaris [14])	MBP (Canis familiaris [15])	Activity (Canis familiaris [16]) [beats min-1]	Effect (Canis familiaris [19])	Effect (Canis familiaris [21])	MBP (Canis familiaris [26])	MBP (Canis familiaris [27])	MBP (Canis familiaris [28])	Effect (Canis familiaris [34])	MBP (Canis familiaris [39])	also measured
c1ccc([C@H]2N[C@@H](c3ccccc3)C3C[Se]CC2C3)cc1	150	145	125	140	82	20	125	exacerbation of VT	270	150	80	30	280	exacerbation of VT							Effect (Canis familiaris [8]): Slight; Effect (Canis familiaris [9]): mod; Effect (Canis familiaris [11]): Slight; Effect (Canis familiaris [17]): No change; Effect (Canis familiaris [18]): exacerbation of VT
OC1(O)C2C[Se]CC1CN(Cc1ccccc1)C2	155	155	125	150	130	60	125	exacerbation of VT	300	150	130	40	255	exacerbation of VT	No exacerbation						Effect (Canis familiaris [20]): inactive; Activity (Canis familiaris [22]): 320 beats min-1; MBP (Canis familiaris [23]): 70; Activity (Canis familiaris [24]): 280 beats min-1; Effect (Canis familiaris [25]): inactive
CCN(CC)CC(=O)Nc1c(C)cccc1C [LIDOCAINE]															inactive	112	72	110	inactive	70	MBP (Canis familiaris [29]): 52; Effect (Canis familiaris [30]): Active; MBP (Canis familiaris [31]): 40; NSR (Canis familiaris [32]): 150; NSR (Canis familiaris [33]): 165; MBP (Canis familiaris [35]): 40; NSR (Canis familiaris [36]): 150; Effect (Canis familiaris [37]): Active; MBP (Canis familiaris [38]): 75; NSR (Canis familiaris [40]): 160; Effect (Canis familiaris [41]): inactive
c1ccc(CCN2CC3C[Se]CC(C3)C2)cc1	150									168						125	150	128		85	MBP (Canis familiaris [42]): 150; NSR (Canis familiaris [43]): 155; MBP (Canis familiaris [44]): 85; NSR (Canis familiaris [45]; 6 mg/kg): 165 and 150 and 155; Effect (Canis familiaris [46]): No exacerbation; Effect (Canis familiaris [47]): mod; Effect (Canis familiaris [48]): abolition of ventricular tachycardia; Effect (Canis familiaris [49]): inactive
c1ccc(CN2CC3C[Se]CC(C3)C2)cc1																			No change		NSR (Canis familiaris [45]): 160; NSR (Canis familiaris [50]): 160; Effect (Canis familiaris [51]): No exacerbation; Effect (Canis familiaris [52]): Slight; MBP (Canis familiaris [53]): 126; Effect (Canis familiaris [54]): abolition of ventricular tachycardia; MBP (Canis familiaris [55]): 125
